Results published in ChEMBL document CHEMBL1201862, “PubChem BioAssay data set” (2004).
Activity calls are given as the source filed them.

Legend:
[1] = biological target: T1, Microphthalmia-associated transcription factor (Homo sapiens, UniProt O75030); test: TRPM1 promoter luciferase signal decrease, dose response, MITF inhibitor project, cell-based, SK-MEL-5, cherry-picked, set 3 (AID 493073); format: functional
T1 sequence (O75030 whole entry): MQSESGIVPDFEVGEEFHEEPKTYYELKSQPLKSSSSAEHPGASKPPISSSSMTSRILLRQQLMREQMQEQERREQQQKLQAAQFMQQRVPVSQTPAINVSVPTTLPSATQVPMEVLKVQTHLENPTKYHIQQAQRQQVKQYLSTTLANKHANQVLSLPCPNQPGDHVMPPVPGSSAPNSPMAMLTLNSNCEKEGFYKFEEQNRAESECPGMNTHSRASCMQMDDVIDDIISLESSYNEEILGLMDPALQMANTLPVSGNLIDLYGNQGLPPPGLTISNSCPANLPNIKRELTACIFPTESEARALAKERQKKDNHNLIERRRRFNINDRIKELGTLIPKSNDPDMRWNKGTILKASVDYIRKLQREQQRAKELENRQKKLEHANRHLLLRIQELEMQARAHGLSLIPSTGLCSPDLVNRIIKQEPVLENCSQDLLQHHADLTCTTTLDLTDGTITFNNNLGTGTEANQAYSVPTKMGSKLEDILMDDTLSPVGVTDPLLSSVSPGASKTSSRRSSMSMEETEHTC

[2] = biological target: T2, Bifunctional protein GlmU (Mycobacterium tuberculosis, UniProt P9WMN3); test: Inhibitors of Mycobacterial Glucosamine-1-phosphate acetyl transferase (GlmU). Secondary screen.; set-up: species or system Mycobacterium tuberculosis H37Rv
T2 sequence (P9WMN3 whole entry): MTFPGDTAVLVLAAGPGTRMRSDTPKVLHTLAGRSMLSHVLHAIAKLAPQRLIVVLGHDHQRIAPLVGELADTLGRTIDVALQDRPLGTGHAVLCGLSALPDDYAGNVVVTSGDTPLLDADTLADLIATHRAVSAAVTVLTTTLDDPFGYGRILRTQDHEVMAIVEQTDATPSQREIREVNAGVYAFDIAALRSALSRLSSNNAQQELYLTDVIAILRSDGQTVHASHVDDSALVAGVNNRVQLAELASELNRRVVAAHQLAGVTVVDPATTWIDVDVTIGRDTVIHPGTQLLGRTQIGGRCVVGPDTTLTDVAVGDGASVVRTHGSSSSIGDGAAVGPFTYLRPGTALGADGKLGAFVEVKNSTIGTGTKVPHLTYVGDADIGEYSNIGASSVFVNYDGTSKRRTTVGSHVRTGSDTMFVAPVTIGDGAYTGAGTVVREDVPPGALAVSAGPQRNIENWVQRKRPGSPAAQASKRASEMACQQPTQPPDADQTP

[3] = biological target: Estrogen receptor beta (Homo sapiens, UniProt Q92731);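 also: recombinant ER-beta bound to coactivator SRC1 peptide in presence of estradiol agonist; inhibitors block coactivator peptide binding and lower the FRET signal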
[4] = biological target: T3, Cytochrome P450 1A2 (Homo sapiens, UniProt P05177);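 also: PubChem cytochrome P450 panel assay, CYP1A2 panel member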
T3 sequence (P05177 whole entry): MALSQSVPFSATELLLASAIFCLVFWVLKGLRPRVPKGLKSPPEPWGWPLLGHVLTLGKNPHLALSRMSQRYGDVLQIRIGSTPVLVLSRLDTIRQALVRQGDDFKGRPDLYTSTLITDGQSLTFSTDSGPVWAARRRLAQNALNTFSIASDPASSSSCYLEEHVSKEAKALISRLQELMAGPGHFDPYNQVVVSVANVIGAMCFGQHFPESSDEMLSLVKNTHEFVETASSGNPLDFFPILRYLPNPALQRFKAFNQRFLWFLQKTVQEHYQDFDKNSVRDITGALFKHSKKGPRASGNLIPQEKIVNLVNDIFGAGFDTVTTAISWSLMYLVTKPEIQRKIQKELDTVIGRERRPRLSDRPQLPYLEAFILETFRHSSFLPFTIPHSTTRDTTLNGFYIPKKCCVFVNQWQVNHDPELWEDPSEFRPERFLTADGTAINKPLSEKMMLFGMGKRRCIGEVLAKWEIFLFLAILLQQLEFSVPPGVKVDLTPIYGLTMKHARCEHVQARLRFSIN

[5] = biological target: Cytochrome P450 2D6 (Homo sapiens, UniProt P10635);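 also: CYP2D6 member of a cytochrome P450 panel assay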
[6] = Dose-response inhibition of insulin secretion in a rat insulinoma line at 5 mM glucose (AID 1117331); format: functional, cell-based; details: INS-1E
[7] = Jurkat T cell cytotoxicity, dose response, cytotoxicity control for P. falciparum gametocyte viability project, luminescence (AID 1117277); format: functional, cell-based;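 also: potency reflects loss of cellular ATP meaning fewer viable cells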
[8] = P. falciparum late gametocyte killing, dose response, luminescence (AID 1117278); format: functional, cell-based;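 also: gametocytes exposed to compound for 24 hours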
[9] = A cytotoxicity screen of small molecule inhibitors of the PhoP region in Salmonella typhi identified in the primary screen. [Related pubchem assays: 1850, 1864, 1985 ]; format: functional
[10] = biological target: T4, Apoptotic protease-activating factor 1 (Homo sapiens, UniProt O14727); format: functional
T4 sequence (O14727 whole entry): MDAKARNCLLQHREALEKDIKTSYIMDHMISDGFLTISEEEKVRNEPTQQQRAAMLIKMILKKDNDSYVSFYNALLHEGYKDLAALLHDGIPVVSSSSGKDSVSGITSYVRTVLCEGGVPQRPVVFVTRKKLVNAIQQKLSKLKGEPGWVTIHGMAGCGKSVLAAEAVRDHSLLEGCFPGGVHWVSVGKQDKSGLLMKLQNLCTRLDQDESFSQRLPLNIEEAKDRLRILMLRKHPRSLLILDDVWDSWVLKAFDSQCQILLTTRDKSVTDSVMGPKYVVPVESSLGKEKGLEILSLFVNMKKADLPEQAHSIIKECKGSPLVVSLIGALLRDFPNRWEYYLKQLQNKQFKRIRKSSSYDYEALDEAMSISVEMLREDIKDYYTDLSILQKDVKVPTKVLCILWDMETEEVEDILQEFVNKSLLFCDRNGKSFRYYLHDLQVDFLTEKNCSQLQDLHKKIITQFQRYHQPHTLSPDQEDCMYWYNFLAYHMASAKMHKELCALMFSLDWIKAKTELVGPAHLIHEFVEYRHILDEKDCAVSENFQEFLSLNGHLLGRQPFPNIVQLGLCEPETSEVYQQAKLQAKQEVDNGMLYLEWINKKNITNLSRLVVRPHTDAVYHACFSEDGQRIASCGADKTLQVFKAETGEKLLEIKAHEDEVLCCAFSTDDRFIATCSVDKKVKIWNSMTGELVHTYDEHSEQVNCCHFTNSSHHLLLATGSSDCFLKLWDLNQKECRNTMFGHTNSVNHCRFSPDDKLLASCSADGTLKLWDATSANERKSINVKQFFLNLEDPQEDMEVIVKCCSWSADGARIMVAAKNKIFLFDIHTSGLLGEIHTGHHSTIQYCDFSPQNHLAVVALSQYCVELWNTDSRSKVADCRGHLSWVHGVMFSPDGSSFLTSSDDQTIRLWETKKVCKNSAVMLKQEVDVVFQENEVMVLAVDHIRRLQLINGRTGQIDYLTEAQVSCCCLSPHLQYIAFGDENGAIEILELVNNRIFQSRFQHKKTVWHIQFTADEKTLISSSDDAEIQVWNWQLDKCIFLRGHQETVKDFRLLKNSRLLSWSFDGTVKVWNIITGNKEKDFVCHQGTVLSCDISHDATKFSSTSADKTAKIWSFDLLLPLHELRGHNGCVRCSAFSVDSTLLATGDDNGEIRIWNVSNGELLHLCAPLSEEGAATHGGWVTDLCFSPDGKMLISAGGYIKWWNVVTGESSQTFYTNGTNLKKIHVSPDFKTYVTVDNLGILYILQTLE

[11] = biological target: T5, Polyadenylate-binding protein 1 (Homo sapiens, UniProt P11940); test: PABP1 MLLE–PAM2 binding inhibitor potency, dose response, biochemical, fluorescence polarization, FITC-PAM2 peptide (AID 602259); format: functional; details: read-out: IC50_Mean
[12] = biological target: T5, Polyadenylate-binding protein 1; test: PABP1 MLLE–PAM2 interaction inhibitors, dose response, miRNA deadenylation inhibitor project, biochemical, fluorescence polarization, Cy5-PAM2 peptide, secondary (AID 602260); format: functional; details: read-out: IC50_Mean
[13] = biological target: T6, Caspase-6 (Homo sapiens, UniProt P55212); test: human caspase-6 inhibitors, dose response, biochemical, VEID-R110 fluorescence, cherry-pick (AID 720632)
T6 sequence (P55212 whole entry): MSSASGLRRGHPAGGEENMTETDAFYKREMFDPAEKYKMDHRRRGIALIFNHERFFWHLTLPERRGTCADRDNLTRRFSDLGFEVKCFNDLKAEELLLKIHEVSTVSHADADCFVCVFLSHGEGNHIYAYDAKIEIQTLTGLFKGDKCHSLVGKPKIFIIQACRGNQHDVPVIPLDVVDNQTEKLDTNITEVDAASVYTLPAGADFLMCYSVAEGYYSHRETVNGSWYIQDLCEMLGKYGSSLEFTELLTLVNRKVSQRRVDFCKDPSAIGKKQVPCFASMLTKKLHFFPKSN

[14] = biological target: T7, Caspase-9 (Homo sapiens, UniProt P55211); test: caspase-9 enzyme inhibition, dose response, selectivity assay for caspase-6 inhibitor project, biochemical, fluorescence, plate reader, cherry-picked samples (AID 743293)
T7 sequence (P55211 whole entry): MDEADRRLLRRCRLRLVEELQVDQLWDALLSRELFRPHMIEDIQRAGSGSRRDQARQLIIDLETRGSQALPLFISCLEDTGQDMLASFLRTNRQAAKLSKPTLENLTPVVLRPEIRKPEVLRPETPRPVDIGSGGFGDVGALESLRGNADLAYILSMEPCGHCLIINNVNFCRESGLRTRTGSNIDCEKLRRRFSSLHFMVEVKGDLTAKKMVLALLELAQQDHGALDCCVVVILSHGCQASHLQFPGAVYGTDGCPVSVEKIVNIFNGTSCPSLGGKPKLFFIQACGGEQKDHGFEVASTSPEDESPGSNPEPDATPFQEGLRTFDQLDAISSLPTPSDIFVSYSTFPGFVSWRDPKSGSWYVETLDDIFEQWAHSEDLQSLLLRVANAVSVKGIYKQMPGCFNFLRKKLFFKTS

[15] = biological target: Nonstructural protein 1 (Influenza A virus, UniProt Q194T2); format: functional, Influenza A virus (A/California/07/2009(H1N1))
[16] = biological target: Caspase-8 (Homo sapiens, UniProt Q14790); test: caspase-8 inhibition counter-screen, dose response, selectivity assay for caspase-6 inhibitor project, biochemical, Z-IETD-R110 fluorescence, cherry-picked samples (AID 743294)
[17] = biological target: T8, Zinc finger protein mex-5 (Caenorhabditis elegans, UniProt Q9XUB2); test: MEX-5/TCR-2 RNA interaction inhibitors, dose response, biochemical, C. elegans, fluorescence polarization (AID 1960)
T8 sequence (Q9XUB2 whole entry): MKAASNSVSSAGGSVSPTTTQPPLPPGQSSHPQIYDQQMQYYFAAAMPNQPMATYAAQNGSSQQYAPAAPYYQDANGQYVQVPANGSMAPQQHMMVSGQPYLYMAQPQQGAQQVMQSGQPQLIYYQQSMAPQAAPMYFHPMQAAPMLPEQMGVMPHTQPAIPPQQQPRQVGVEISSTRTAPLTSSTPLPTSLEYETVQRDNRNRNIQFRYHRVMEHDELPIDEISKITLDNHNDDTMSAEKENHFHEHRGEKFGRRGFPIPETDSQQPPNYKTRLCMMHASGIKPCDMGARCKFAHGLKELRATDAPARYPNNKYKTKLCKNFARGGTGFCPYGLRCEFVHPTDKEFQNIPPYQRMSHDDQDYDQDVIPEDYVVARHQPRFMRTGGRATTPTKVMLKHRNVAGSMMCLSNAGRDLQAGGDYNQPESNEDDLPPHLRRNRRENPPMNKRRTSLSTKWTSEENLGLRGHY

[18] = biological target: T9, RNA-binding protein pos-1 (Caenorhabditis elegans, UniProt G5EF15); test: inhibitors of POS-1/mex-3 RNA binding, dose response, biochemical, fluorescence polarization (AID 1964);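 also: purified POS-1 fused to maltose binding protein made in E. coli; potency of compounds blocking POS-1 binding to fluorescent RNA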
T9 sequence (G5EF15 whole entry): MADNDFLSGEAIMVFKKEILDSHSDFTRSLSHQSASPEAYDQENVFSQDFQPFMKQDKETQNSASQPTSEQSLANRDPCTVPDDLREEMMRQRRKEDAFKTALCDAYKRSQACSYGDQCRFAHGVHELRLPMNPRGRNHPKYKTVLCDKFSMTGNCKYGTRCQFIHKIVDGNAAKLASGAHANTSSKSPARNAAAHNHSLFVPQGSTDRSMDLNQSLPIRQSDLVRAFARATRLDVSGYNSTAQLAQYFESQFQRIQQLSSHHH

T5 sequence (P11940 whole entry): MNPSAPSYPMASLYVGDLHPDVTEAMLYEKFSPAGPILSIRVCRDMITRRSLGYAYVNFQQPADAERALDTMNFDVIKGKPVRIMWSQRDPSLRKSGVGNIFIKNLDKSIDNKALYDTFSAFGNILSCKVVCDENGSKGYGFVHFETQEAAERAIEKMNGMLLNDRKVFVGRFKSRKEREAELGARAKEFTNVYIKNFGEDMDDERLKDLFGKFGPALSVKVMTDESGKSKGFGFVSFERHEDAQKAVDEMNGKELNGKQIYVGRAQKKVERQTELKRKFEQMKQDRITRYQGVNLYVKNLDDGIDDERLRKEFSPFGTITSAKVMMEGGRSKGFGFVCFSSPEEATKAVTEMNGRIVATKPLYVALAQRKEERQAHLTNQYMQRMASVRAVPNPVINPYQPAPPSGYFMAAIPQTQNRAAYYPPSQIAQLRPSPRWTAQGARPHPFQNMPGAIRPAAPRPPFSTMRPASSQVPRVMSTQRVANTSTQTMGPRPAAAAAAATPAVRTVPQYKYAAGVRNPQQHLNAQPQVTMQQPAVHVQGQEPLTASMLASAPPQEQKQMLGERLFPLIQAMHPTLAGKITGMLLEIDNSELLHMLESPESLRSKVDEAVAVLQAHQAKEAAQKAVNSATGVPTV
Sequence of Nonstructural protein 1 (Q194T2 whole entry): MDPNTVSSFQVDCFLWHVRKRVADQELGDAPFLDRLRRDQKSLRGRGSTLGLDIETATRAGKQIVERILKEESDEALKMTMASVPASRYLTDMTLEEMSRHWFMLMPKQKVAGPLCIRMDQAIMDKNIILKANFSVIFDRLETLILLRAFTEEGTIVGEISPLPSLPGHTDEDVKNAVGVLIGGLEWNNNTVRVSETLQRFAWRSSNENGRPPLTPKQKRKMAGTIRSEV
Sequence of Caspase-8 (Q14790 217-374 limits assumed): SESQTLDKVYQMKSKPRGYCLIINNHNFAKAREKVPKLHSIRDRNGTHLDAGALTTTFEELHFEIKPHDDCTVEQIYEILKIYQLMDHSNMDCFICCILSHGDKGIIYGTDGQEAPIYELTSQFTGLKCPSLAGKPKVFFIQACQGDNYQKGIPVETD
Sequence of Caspase-8 (Q14790 385-479 limits assumed): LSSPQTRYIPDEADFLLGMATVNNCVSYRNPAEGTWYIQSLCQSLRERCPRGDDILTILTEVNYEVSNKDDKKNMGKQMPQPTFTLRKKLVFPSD
Sequence of Estrogen receptor beta (Q92731 whole entry): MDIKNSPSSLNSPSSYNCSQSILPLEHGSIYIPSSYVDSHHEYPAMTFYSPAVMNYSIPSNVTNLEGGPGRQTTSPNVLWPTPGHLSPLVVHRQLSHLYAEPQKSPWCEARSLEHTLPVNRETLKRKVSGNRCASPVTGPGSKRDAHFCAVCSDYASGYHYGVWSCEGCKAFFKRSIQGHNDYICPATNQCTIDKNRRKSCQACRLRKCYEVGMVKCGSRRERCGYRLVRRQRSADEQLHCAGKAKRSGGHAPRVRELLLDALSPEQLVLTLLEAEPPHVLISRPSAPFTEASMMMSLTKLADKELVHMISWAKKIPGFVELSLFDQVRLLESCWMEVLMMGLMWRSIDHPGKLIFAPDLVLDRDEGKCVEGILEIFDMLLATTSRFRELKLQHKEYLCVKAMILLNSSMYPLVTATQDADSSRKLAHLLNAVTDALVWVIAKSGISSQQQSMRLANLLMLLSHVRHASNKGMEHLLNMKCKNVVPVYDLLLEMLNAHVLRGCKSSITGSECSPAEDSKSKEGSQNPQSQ
Sequence of Cytochrome P450 2D6 (P10635 whole entry): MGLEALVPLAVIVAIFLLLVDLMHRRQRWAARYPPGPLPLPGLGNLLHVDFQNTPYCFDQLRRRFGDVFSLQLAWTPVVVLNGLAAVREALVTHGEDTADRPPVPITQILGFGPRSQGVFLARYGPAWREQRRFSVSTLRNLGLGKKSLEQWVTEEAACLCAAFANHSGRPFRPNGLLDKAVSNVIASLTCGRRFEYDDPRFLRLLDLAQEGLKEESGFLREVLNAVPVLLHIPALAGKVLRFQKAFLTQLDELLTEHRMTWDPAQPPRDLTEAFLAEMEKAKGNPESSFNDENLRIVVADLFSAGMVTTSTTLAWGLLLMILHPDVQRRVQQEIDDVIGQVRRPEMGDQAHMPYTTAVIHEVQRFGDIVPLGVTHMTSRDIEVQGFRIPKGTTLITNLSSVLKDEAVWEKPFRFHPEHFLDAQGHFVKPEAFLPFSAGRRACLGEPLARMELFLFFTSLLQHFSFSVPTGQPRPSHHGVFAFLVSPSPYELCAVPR

With Cc1nn(-c2ccccc2Cl)c(Cl)c1/C=N/Nc1cccc(C(=O)O)c1 the AC50 [1] was 5.5 µM (active) and the IC50 [2] was 137 µM (active).

In the case of COC(=O)C(O)(c1ccc(N(C)C(=O)OC(C)C)cc1)C(F)(F)F (centres undefined), the IC50 [3] is reported as > 50 µM (not active).

In the case of CCN(CC)CCOc1ccc(Cc2ccccc2)cc1, the AC50 [4] is reported as 12.6 µM (inconclusive), the AC50 [5] is reported as 25.1 µM (inconclusive) and the IC50 [6] is reported as > 33.3 µM (inactive).

For Cn1c(SCC(=O)N2CCCCC2)nnc1-c1ccc(S(=O)(=O)N2CCOCC2)cc1, the IC50 [7] was > 83.3 µM (inactive) and the IC50 [8] was > 109 µM (inactive).

For CCC1=C(C)CN(C(=O)NCCc2ccc(S(=O)(=O)NC(=O)N[C@H]3CC[C@H](C)CC3)cc2)C1=O [GLIMEPIRIDE], the IC50 [6] was 0.00406 µM (active).

For CCOC(=O)CSc1nnc2c(n1)C1(C)CCC2C1(C)C (centres undefined), the IC50 [7] was > 83.2 µM (inactive), the IC50 [8] was > 109 µM (inactive) and the EC50 [9] was > 50 µM (active).

With Oc1cc(NCCc2cccnc2)cc2cccnc12 the IC50 [10] was 18.4 µM (active), the IC50 [11] was 42.3 µM (inactive) and the IC50 [12] was > 66 µM (inactive). The AC50 [13] was 2.89 µM (active), the AC50 [14] was > 70 µM (inactive) and the IC50 [15] was 6.64 µM (active). The AC50 [16] was 30.1 µM (active).

For CC1CCN(C(=O)CSc2ccc(-c3ccc(F)cc3)nn2)CC1, the IC50 [7] was > 83.3 µM (inactive) and the IC50 [8] was > 109 µM (inactive).

With COc1ccccc1N1C(=O)C(Cl)=C(Nc2ccccc2O)C1=O the EC50 [17] was 8.19 µM (inconclusive), the IC50 [2] was 90.9 µM (active) and the EC50 [18] was 34.7 µM (active).
